Format in all cases: cell-based
Test [1] has as its system Neurons prepared from the cerebral cortex of gestation day 17 SD rat embryos.
For test [2], the system named is ion channels of a Lymnaea Stagnalis neuron. Nature of the test: Extracellular recording, normal distribution of standard deviations before and after application (Example 4). To be noted: after applying 50 μM; 0.478 before the application. An excerpt: FIG. 14 is a conceptual diagram showing a configuration of an apparatus for detecting an action of a subject chemical substance on a biological sample according to the present invention. The apparatus is the same as the apparatus of FIG. 13, except that a normal distribution approximation section 103, an average/half-width calculation section 106 and an activity categorization section 109 are employed in place of the average calculation section 105 and the activity calculation section 108. Communications between each section are indicated by a dashed line or a solid line in FIG. 13. […] Note that similar to the apparatus of FIG. 13, the unit standard deviation calculation section 102, the normal distribution approximation section 103, the average/half-width calculation section 106 and the activity categorization section 109 may be representatively software programs which are recorded in a hard disk of a computer. […] Before and after 50 μM-concentration Carbachol was applied to a Lymnaea Stagnalis neuron, signals were obtained from the measurement section (signal source) 101, and the standard deviation of the signals was calculated in a manner similar to that of Example 1. […]

The test system is the same in test [3]. As to the kind of experiment: Extracellular recording, average of standard deviations of the electrical signal (Example 3). To be noted: 0, 0.1, 0.3, 1, 3, 10, 30 and 100 μM in artificial cerebrospinal fluid; 10 seconds of data. How it is done: The apparatus having the configuration shown in FIG. 13 was used to measure an action of a neuron to the chemical substance Carbachol, where the neuron was prepared from Lymnaea Stagnalis. Carbachol is a chemical substance known as an analog of the neurotransmitter Acetylcholine. Carbachol (manufactured by Sigma) was dissolved in artificial cerebrospinal fluid to concentrations of 0, 0.1, 0.3, 1, 3, 10, 30 and 100 μM. The solutions having these concentrations were used to measure an electrical signal emitted by the neuron. For each Carbachol concentration, time-series data for 10 seconds was obtained from the measurement section (signal source) 101 comprising the sensor substrate, and was sampled at intervals of 100 miliseconds, and the standard deviation of the sampling data was calculated. The average of the standard deviation was plotted in FIG. 17.

The values that follow come from patent US20030113833A1, “Device for measuring extracellular potential, method of measuring extracellular potential by using the same and apparatus for quickly screening drug provided therewith” (priority 2001, published 2003).

ω-conotoxin GVIA [Ca antagonist]: in test [1], the “frequency at which the noise has a maximal value” is recorded as “about 4 Hz” and the “noise intensity in the absence of the Ca antagonist relative to that in its presence” value is listed as “about 1.5 times”.
As for `C[N+](C)(C)CCOC(N)=O` [Carbachol], the “average of the normal distribution of standard deviation values every 5 miliseconds” value in test [2] worked out at 0.703. In test [3], the “average of the standard deviation every 100 miliseconds versus concentration” value was “the greater the Carbachol concentration, the greater the average of the standard deviation every 100 miliseconds”.
